# Measurements from patent publication US11166893B2, “Topical hirsutism treatment” (BMG PHARMA SRL, priority 2015, dated 2021).
# Test system: growth of superfluous hair
# Experiment: Inhibition of superfluous hair growth evaluated by the Trichoscan method
# Type: in vivo
# Conditions: 10% capryloyl glycine cream, topical, compared with eflornithine efficacy reported in Eur. J Dermatol 2008, 18 (1): 65-70
# Method: The ability of capryloyl glycine to inhibit the growth of superfluous hair was evaluated by the Trichoscan® method (http://trichoscan.com/pages/english/professional-info/reference-values.php).
structure (smiles),measurement,value
CCCCCCCC(=O)NCC(=O)O [capryloyl glycine],ability to inhibit the growth of superfluous hair (efficacy),efficacy comparable to that of eflornithine
